Data on two compounds can be found in patent publication US20170128407A1, “NOVEL FORMULATIONS” (priority 2015, published 2017).

The conditions of data set [1]: cited from earlier work.
The conditions of data set [2]: in water and propylene glycol, storage; cited from earlier work.
Data set [3] in a line: BPO solubility in water and in binary mixtures with surfactants. The note with it: water. An excerpt: The concentration of all surfactants was fixed at 6% w/w active.
The nature of data set [4]: Chemical stability of BPO in wash formulations, shelf life prediction. Type of data set: physicochemical. The note with it: wash formulations with increasing sorbitol concentrations. As to the method: BPO stability in the formulations of the present invention were assessed over time at 25° C./60% RH and 30° C./65% RH using environmentally controlled chambers. Specifically formulations containing 2.5% BPO or 10% BPO in glass vials were placed on stability, and monitored for BPO degradation.
Chemical stability of the BPO in surfactant based wash products is a challenge due to increased solubility of the BPO in these systems.

Converted amounts (≈) assume the structure as drawn. Read-outs that look alike come from different tables or passages of the source.

As a reminder, the solubility is the dissolved amount per volume that the medium holds. Take `O=C(OOC(=O)c1ccccc1)c1ccccc1` [BPO, Benzoyl peroxide]: the “half-life of BPO in solution in water” value was 11.87 h in data set [1] (pH 4) and 5.20 h in data set [1] (pH 7). The “stability of benzoyl peroxide in suspension (dispersed form)” value in data set [2] was “not degraded after 90 days”. The solubility in data set [3] turned out to be 3 µg/mL (≈ 12.4 µM).

Regarding `OC[C@@H](O)[C@@H](O)[C@H](O)[C@@H](O)CO` [sorbitol, D-Sorbitol], the “effect on BPO stability (benzoic acid generated)” value in data set [4] was “improve BPO stability”.
